Results reported in patent US20130281638A1, “TRICYCLO COMPOUND-POLYMER CONJUGATE” (SUCAMPO AG, priority 2012, published 2013).

Experiments:
[1] = Incorporation of Tacrolimus into MPEG-hexPLA polymer micelles; assay type: physicochemical; conditions: loadings up to 300 mg Tacrolimus per gram MPEGhexPLA; aqueous micelle solution, acetone/water sonication protocol
Protocol: Objective is the evaluation of the methoxypoly(ethylene glycol)-hexyl-substituted poly(lactic acid) [MPEG-hexPLA] polymer micelles' potential to incorporate and solubilize Tacrolimus.
The incorporation studies were carried out by a standard formulation protocol. Briefly, a defined amount of Tacrolimus was dissolved in acetone and added dropwise under sonication into water, followed by evaporation of the organic solvent and equilibration of the micelle solution overnight.
As it can be seen, for loadings up to 300 mg Tacrolimus per gram MPEGhexPLA, loading efficiencies higher than 70% could be obtained by this simple procedure. FIG. 2 presents the corresponding concentrations of Tacrolimus in the aqueous solution. It has to be noted, that these solutions can be further concentrated by simple evaporation to obtain higher drug concentrations, and keeping the transparency of the solutions.

[2] = cited from earlier work
[3] = Storage stability of Tacrolimus MPEG-hexPLA micelle formulations at 4° C.; assay type: physicochemical; conditions: stored at 4° C.
Text: The non-incorporated active compound can be removed by a simple filtration.

loading efficiencies [1]: higher than 70%
stability on storage ([3]; formulation with a target of 150 mg/g): best stable formulation
stability on storage (precipitation) ([3]; higher (than 150 mg/g target) and possibly oversaturated formulations): slight drug precipitation
Compound: C=CCC1/C=C(\C)CC(C)CC(OC)C2OC(O)(C(=O)C(=O)N3CCCCC3C(=O)OC(/C(C)=C/C3CCC(O)C(OC)C3)C(C)C(O)CC1=O)C(C)CC2OC (stereo not shown) [Tacrolimus, 17-allyl-1,14-dihydroxy-12-[2-(4-hydroxy-3-methoxycyclohexyl)-1-methylvinyl]-23,25-dimethoxy-13,19,21,27-tetramethyl-11,28-dioxa-4-azatricyclo[22.3.1.0^4,9]octacos-18-ene-2,3,10,16-tetraone]
water solubility [2]: poorly water-soluble
